Consider one compound from publication PMC12930396, “Positive modulators of N-methyl-D-aspartate receptor: structure–activity relationship study on steroidal C-17 and C-20 oxime ethers” (RSC Advances, 2026).

The structures appear in SMILES notation. Several values for one entry are separate records, joined by “and”; a condition that tells them apart may be missing. Equal values may be shown once.

One data set in a line: Stability in rat plasma. The format is in vitro ADME. Particulars: rat plasma, 37 °C. The protocol: Compounds were prepared as 1.6 mg mL^−1 stock solutions in methanol. Then, 20 µL of stock solution was added to 1000 µL of rat plasma (BioIVT, Cat. No. RAT00PLLH-0102307), maintained at 37 °C. Aliquots (50 µL) withdrawn at 0, 8, and 24 h were analyzed by HPLC. An aliquot of plasma was extracted with methanol (450 µL) containing an internal standard, and the solution was vortexed (20 s) and centrifuged at 13 500 rpm for 10 min. The supernatant was transferred to an autosampler vial, and 10 µL was injected into an LC-MS system. The samples were analyzed using an Agilent 6230 TOF LC/MS. Samples were separated on a Waters ACQUITY UPLC CSH Phenyl-Hexyl column (100 × 2.1, 130 Å, 1.7 µm) at a flow rate of 0.3 mL min^−1. […]. The temperature, the flow rate of the nitrogen drying gas, the pressure of the nitrogen nebulizing gas, and the flow rate of the sheath gas were set at 325 °C, 10 L min^−1, 40 psi, […], and 11 L min^−1, respectively. Results are represented as a percentage of the compound remaining in spiked plasma.

For the next data set, the target named is T1, GluN1/GluN2B receptors (Rattus norvegicus, UniProt P35439+Q00960).
T1 construct: expressed in transfected cells; host or cells: HEK293 cells (ATCC No. CRL-1573)
T1 sequence (Q00960 27-1482, other chains not shown): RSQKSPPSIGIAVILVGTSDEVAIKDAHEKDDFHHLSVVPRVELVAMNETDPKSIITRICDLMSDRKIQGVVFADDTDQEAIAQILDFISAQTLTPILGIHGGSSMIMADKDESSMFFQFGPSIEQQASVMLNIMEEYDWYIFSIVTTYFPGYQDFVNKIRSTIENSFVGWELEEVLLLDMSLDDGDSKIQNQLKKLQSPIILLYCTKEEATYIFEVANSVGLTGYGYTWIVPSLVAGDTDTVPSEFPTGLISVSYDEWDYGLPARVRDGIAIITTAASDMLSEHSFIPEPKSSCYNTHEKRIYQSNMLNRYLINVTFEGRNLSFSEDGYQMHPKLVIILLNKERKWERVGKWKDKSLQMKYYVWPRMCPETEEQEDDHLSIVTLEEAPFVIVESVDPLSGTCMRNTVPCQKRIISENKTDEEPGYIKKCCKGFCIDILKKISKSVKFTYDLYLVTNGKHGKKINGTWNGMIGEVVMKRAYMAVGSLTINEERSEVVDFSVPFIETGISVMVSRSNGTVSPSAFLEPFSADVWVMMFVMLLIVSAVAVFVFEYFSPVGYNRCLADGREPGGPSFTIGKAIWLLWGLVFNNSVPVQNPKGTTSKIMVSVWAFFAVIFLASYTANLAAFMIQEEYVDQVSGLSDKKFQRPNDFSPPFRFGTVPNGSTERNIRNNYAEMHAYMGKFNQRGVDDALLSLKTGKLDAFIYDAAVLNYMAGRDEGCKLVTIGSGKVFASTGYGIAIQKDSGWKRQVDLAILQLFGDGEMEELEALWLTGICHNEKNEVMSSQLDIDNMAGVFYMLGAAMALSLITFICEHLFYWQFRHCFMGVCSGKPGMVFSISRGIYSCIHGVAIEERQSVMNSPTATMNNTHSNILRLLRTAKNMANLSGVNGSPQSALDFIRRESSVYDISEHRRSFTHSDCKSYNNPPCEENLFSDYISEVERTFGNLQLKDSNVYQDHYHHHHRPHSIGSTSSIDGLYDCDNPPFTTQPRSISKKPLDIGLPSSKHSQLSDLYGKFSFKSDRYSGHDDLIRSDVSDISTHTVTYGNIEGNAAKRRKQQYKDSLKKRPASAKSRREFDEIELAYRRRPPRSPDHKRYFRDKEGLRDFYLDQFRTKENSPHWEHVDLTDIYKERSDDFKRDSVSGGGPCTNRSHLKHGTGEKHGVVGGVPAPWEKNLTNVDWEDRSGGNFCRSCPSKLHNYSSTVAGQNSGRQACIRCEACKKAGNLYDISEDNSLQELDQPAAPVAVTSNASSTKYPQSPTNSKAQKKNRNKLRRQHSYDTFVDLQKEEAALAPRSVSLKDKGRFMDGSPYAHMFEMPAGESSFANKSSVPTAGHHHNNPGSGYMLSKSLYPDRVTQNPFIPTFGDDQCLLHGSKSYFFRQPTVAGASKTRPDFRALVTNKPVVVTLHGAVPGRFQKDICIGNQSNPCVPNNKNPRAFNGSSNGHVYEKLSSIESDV
In words: Patch-clamp: modulation of glutamate-induced currents of recombinant GluN1/GluN2B receptors expressed in HEK293 cells. The format is cell-based. As for the experimental part: To investigate the effect of compounds 11–23 on the activity of NMDARs, electrophysiological measurements were performed on HEK293 cells that were co-transfected with cDNAs containing genes encoding for the rat GluN1-1a and GluN2B subunits. The degree of modulation (E; potentiation/inhibition) for the newly synthesized compounds was determined using the following formula: [drawing 1] where Ie is the value of the current amplitude during glutamate and compound coapplication, and Ia is the current amplitude value for glutamate application. […] The results are presented as mean ± standard error of the mean (SEM), with n equal to the number of independent measurements. One-way analysis of variance (ANOVA) was used for multiple comparisons (unless otherwise stated, a value of P ≤ 0.05 was used for the determination of significance).
We have evaluated the relationship between oxime derivatives 11–23 and their modulatory effect on recombinant GluN1/GluN2B receptors. Due to the […] effect of neurosteroid-based PAMs at NMDARs[20,44]
HEK293 cells (American Type Culture Collection, ATCC No. CRL-1573, Rockville, MD, USA) were cultured in Opti-MEM I (Invitrogen, Carlsbad, CA, USA) supplemented with 5% fetal bovine serum (FBS; PAN Biotech, Aidenbach, Germany) at 37 °C in 5% CO2. 24 h before transfection, HEK293 cells were plated in 24-well plates at a density of 2 × 10^5 cells per well. The next day, the cells were transfected with cDNA encoding rat GluN1-1a (GluN1; GenBank accession number U08261)[56] and GluN2B (GenBank accession number M91562)[57] subunits (in the pCI-neo expression vector), along with green fluorescent protein (GFP; in the pQBI 25 vector, Takara, Tokyo, Japan). Briefly, equal amounts (200 ng) of cDNAs encoding GluN1-1a, GluN2B, and GFP were mixed with 0.6 µl of Matra-A reagent (IBA, Gottingen, Germany) in 50 µL of Opti-MEM I and added to confluent HEK293 cells cultured in 24-well plates. After trypsinization, the cells were resuspended in Opti-MEM I containing 1% FBS, supplemented with 20 mM MgCl2, 1 mM D,L-2-amino-5-phosphonovaleric acid, 3 mM kynurenic acid, and 1 µM ketamine, and plated on 30 mm glass coverslips coated with collagen and poly-L-lysine. Transfected cells were identified by GFP epifluorescence. Electrophysiology experiments were performed 24–48 h after transfection.
Whole-cell current recordings, voltage-clamped at a holding potential of −60 mV, were performed at room temperature using a patch-clamp amplifier (Axopatch 200B; Molecular Devices, Sunnyvale, CA, USA) after capacitance and series resistance (<10 MΩ) compensation (80–90%). NMDAR current responses were low-pass filtered at 2 kHz, digitally sampled at 5 kHz, and analysed using pClamp software (version 10.6; Molecular Devices). Patch pipettes (3–5 MΩ), pulled from borosilicate glass, were filled with an intracellular solution (ICS) containing (in mM): 15 CsCl, 10 BAPTA, 3 MgCl2, 1 CaCl2, 120 gluconic acid, 10 HEPES, and 2 ATP-Mg salt (pH adjusted to 7.2 with CsOH). The extracellular solution (ECS) contained (in mM): 160 NaCl, 2.5 KCl, 0.2 EDTA, 10 glucose, 10 HEPES, and 0.7 CaCl2 (pH adjusted to 7.3 with NaOH). NMDAR responses were induced by 1 µM glutamate and 30 µM glycine. 1% DMSO was present in all control and testing solutions. Solution applications were performed using a microprocessor-controlled multibarrel fast-perfusion system with a solution exchange rate around the cells of ∼10 ms.[58]

The nature of data set [1]: Stability in primary rat hepatocytes. The protocol: Primary rat hepatocytes were isolated from 12-weeks-old male Wistar rats (n = 3) by two-step collagenase liver perfusion. Tribromoethanol was used as an anesthetic agent at a dose of 250 mg kg^−1. […] Flow rate was maintained at 7 mL min^−1, and all solutions were kept at 37 °C. After in situ perfusion, the liver was excised, the liver capsule was opened, and cells were suspended in William's Medium E and filtered through a 70 µm membrane. Dead cells were removed by Percoll centrifugation (Percoll density: 1.06 g mL^−1, 50×g, 10 min, 20 °C) and additional centrifugation in William's Medium E (50×g, 5 min). Cells were subsequently diluted in William's Medium E, and their viability and cell suspension density were determined by Trypan Blue exclusion using a hemocytometer. […] Aliquots (50 µL) of the hepatocyte suspension were added to each test well of a 96-well plate, immediately followed by the addition of a 50 µL aliquot of the test compound or control solutions (final hepatocyte density – 0.5 × 10^6 mL^−1). […] At appropriate time-points, 40 µL aliquots were removed from the wells and placed in 1.1 mL microtubes containing 200 µL of methanol and used for LC-MS/MS analysis.
Elimination constant (kel), half-life (t1/2), and intrinsic clearance (CLint) were determined in plots of ln (percent remaining of parent compound) versus time, using linear regression analysis: k = −slope [drawing 6] [drawing 7]

The term EC50 denotes the concentration needed to bring the measured effect to its halfway point. What is called Emax is the size of the effect at its maximum, as opposed to the concentration needed. One may read the half-life as the time needed for the level to fall by half in the phase considered. Read a high half-life as slow decline. Regarding `CCON=C(C)C1CCC2C3CC=C4CC(OC(=O)CCCC(=O)O)CCC4(C)C3CCC12C` (stereo not drawn) [Compound 12, 20-Oxo-pregn-5-en-3β-yl hemiglutarate O-ethyloxime], in “Stability in rat plasma” (8 h), the “Stability in rat plasma (% remaining) 8 h” value is 85.6 ± 1.0 % remaining and 86 ± 1 % remaining. Moreover, the “Stability in rat plasma (% remaining) 24 h” value in “Stability in rat plasma” (24 h) was 59.6 ± 0.7 % remaining and 60 ± 1 % remaining. Moreover, at GluN1/GluN2B receptors (Emax compared with PES), the “Efficacy relative to PES” value is recorded as “over 6 fold”. Further, at GluN1/GluN2B receptors (concentration-response fit, mean ± SEM), the “h ± SEM (apparent Hill coefficient)” value is recorded as 1.7 ± 0.3. In addition, at GluN1/GluN2B receptors (half-maximal potentiation of currents evoked by 1 µM glutamate, HEK293, mean ± SEM), the EC50 turned out to be 8.7 ± 1.1 µM. Besides, at GluN1/GluN2B receptors (maximal potentiation of currents evoked by 1 µM glutamate and 30 µM glycine, HEK293, mean ± SEM), the Emax came out at 673 ± 121%. Besides, in data set [1] (3 µM, 0.5 × 10^6 cells mL^−1), the “Stability in primary rat hepatocytes Clint” value is 19.1 µL/min/mg. For the same compound, the half-life at 3 µM in data set [1] (male, Wistar, rat, hepatocytes) is 1.21 h. In addition, the “Metabolic stability in rat hepatocytes” value in data set [1] (rat, hepatocytes) is listed as “moderate metabolic stability”.
